# What was measured:
# Assay in all cases: relative viability (nuclei count vs DMSO), 5 days (fraction); higher = more cells survive
# AGI-6780 + Luminespib = compound: O=C(Nc1cccc(C(F)(F)F)c1)Nc1cc(S(=O)(=O)NC2CC2)ccc1-c1ccsc1 [AGI-6780] + CCNC(=O)c1noc(-c2cc(C(C)C)c(O)cc2O)c1-c1ccc(CN2CCOCC2)cc1 [Luminespib] (partner 0.01 µM)
# Outline: (§1)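 Cells from lung cancer lines were seeded into 1536-well plates and, one day later, dosed by pin tool. Treatments were either a single drug or a fixed dose of an anchor drug with five library-drug doses (not always all listed) in √10 steps. After 5 days, nuclei were stained in a one-step fixation (final 0.05% Triton X-100, 1% formaldehyde, 1 ug/ml Hoechst) and counted on 4× images, and relative viability is the treated-to-vehicle nuclei ratio, as the median of duplicate plates.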
# AGI-6780 + Dasatinib = compound: O=C(Nc1cccc(C(F)(F)F)c1)Nc1cc(S(=O)(=O)NC2CC2)ccc1-c1ccsc1 [AGI-6780] + Cc1nc(Nc2ncc(C(=O)Nc3c(C)cccc3Cl)s2)cc(N2CCN(CCO)CC2)n1 [Dasatinib] (partner 0.075 µM)
# Outline: as §1
# AGI-6780 + Decitabine = compound: O=C(Nc1cccc(C(F)(F)F)c1)Nc1cc(S(=O)(=O)NC2CC2)ccc1-c1ccsc1 [AGI-6780] + Nc1ncn([C@H]2C[C@H](O)[C@@H](CO)O2)c(=O)n1 [Decitabine] (partner 2 µM)
# Outline: as §1
# AGI-6780 + Foretinib = compound: O=C(Nc1cccc(C(F)(F)F)c1)Nc1cc(S(=O)(=O)NC2CC2)ccc1-c1ccsc1 [AGI-6780] + COc1cc2c(Oc3ccc(NC(=O)C4(C(=O)Nc5ccc(F)cc5)CC4)cc3F)ccnc2cc1OCCCN1CCOCC1 [Foretinib] (partner 0.25 µM)
# Outline: as §1
Cell Line,relative viability (AGI-6780 + Luminespib; first compound 0.08 µM),relative viability (AGI-6780 + Luminespib; first compound 0.253 µM),relative viability (AGI-6780 + Luminespib; first compound 0.8 µM),relative viability (AGI-6780 + Luminespib; first compound 2.53 µM),relative viability (AGI-6780 + Luminespib; first compound 8 µM),relative viability (AGI-6780 + Dasatinib; first compound 0.08 µM),relative viability (AGI-6780 + Dasatinib; first compound 0.253 µM),relative viability (AGI-6780 + Dasatinib; first compound 0.8 µM),relative viability (AGI-6780 + Dasatinib; first compound 2.53 µM),relative viability (AGI-6780 + Dasatinib; first compound 8 µM),relative viability (AGI-6780 + Decitabine; first compound 0.08 µM),relative viability (AGI-6780 + Decitabine; first compound 0.253 µM),relative viability (AGI-6780 + Decitabine; first compound 0.8 µM),relative viability (AGI-6780 + Decitabine; first compound 2.53 µM),relative viability (AGI-6780 + Decitabine; first compound 8 µM),relative viability (AGI-6780 + Foretinib; first compound 0.08 µM),relative viability (AGI-6780 + Foretinib; first compound 0.253 µM),relative viability (AGI-6780 + Foretinib; first compound 0.8 µM),relative viability (AGI-6780 + Foretinib; first compound 2.53 µM),relative viability (AGI-6780 + Foretinib; first compound 8 µM)
NCI-H441,0.346,0.333,0.41,0.302,0.361,0.669,0.639,0.597,0.548,0.472,0.221,0.28,0.25,0.204,0.241,1.03,1.16,1.06,0.754,0.844
NCI-H460,0.0337,0.0309,0.0296,0.0322,0.0345,0.495,0.583,0.468,0.444,0.541,0.547,0.453,0.552,0.446,0.512,0.98,1.04,1.04,0.998,0.991
NCI-H520,0.23,0.255,0.234,0.178,0.231,0.197,0.185,0.216,0.177,0.194,0.599,0.482,0.434,0.392,0.467,0.684,0.942,1.07,0.655,0.77
NCI-H596,1,0.995,0.982,–,1.09,0.582,0.583,0.624,–,0.665,1.65,0.981,0.991,0.73,0.924,0.978,1.01,0.788,–,1.06
NCI-H647,0.0935,0.181,0.12,0.103,0.118,0.186,0.202,0.23,0.175,0.448,0.438,0.478,0.411,0.297,0.401,1.1,1.2,1.31,1.11,1.4
NCI-H650,0.673,0.874,0.865,0.793,0.946,0.459,0.528,0.443,0.399,0.426,0.288,0.296,0.377,0.33,0.296,1.06,1.05,1.04,0.961,1.07
NCI-H661,0.928,0.938,0.951,1.01,0.87,0.819,0.998,0.986,0.858,1.02,0.589,0.567,0.612,0.502,0.558,1.03,0.986,1.03,0.873,1.05
NCI-H727,0.322,0.545,0.347,0.287,0.468,0.35,0.297,0.386,0.314,0.398,0.939,0.95,0.857,0.951,0.897,1.07,0.982,0.98,0.626,1.02
NCI-H838,0.374,0.353,0.339,0.303,0.274,0.312,0.357,0.307,0.261,0.321,0.445,0.495,0.479,0.506,0.47,1.13,1.02,0.987,0.895,1.02
NCI-H1355,0.75,0.791,0.686,0.408,0.624,0.771,0.712,0.771,0.518,0.776,0.353,0.419,0.357,0.34,0.355,0.956,0.98,1.06,0.911,1.04
NCI-H1395,1.02,0.78,0.73,0.646,0.615,0.403,0.478,0.428,0.36,0.376,0.738,0.789,0.747,0.676,0.742,0.917,0.986,0.979,0.901,0.931
NCI-H1437,1.21,1.06,1.17,1.22,1.1,0.371,0.493,0.404,0.306,0.342,0.572,0.587,0.594,0.583,0.576,1.2,1.27,1.21,1.31,1.15
NCI-H1650,0.187,0.203,0.219,0.228,0.191,0.337,0.371,0.38,0.274,0.366,0.435,0.485,0.381,0.305,0.387,1.07,1.23,1.06,1.24,1.13
NCI-H1651,0.809,0.893,0.919,0.744,0.804,0.361,0.534,0.528,0.341,0.544,0.557,0.627,0.619,0.535,0.653,0.87,0.824,0.715,0.692,0.796
NCI-H1666,1.04,1.03,1.01,0.961,1.06,0.785,0.79,0.872,0.708,0.877,0.665,0.78,0.733,0.663,0.72,0.945,0.999,0.939,0.929,1.04
NCI-H1734,0.216,0.233,0.201,0.19,0.177,0.459,0.461,0.473,0.347,0.435,0.506,0.566,0.528,0.372,0.48,0.814,0.954,0.83,0.663,0.819

Cell Line,relative viability (AGI-6780 + Luminespib; first compound 0.08 µM),relative viability (AGI-6780 + Luminespib; first compound 0.253 µM),relative viability (AGI-6780 + Luminespib; first compound 0.8 µM),relative viability (AGI-6780 + Luminespib; first compound 2.53 µM),relative viability (AGI-6780 + Luminespib; first compound 8 µM),relative viability (AGI-6780 + Dasatinib; first compound 0.08 µM),relative viability (AGI-6780 + Dasatinib; first compound 0.253 µM),relative viability (AGI-6780 + Dasatinib; first compound 0.8 µM),relative viability (AGI-6780 + Dasatinib; first compound 2.53 µM),relative viability (AGI-6780 + Dasatinib; first compound 8 µM),relative viability (AGI-6780 + Decitabine; first compound 0.08 µM),relative viability (AGI-6780 + Decitabine; first compound 0.253 µM),relative viability (AGI-6780 + Decitabine; first compound 0.8 µM),relative viability (AGI-6780 + Decitabine; first compound 2.53 µM),relative viability (AGI-6780 + Decitabine; first compound 8 µM),relative viability (AGI-6780 + Foretinib; first compound 0.08 µM),relative viability (AGI-6780 + Foretinib; first compound 0.253 µM),relative viability (AGI-6780 + Foretinib; first compound 0.8 µM),relative viability (AGI-6780 + Foretinib; first compound 2.53 µM),relative viability (AGI-6780 + Foretinib; first compound 8 µM)
NCI-H1755,0.37,0.49,0.518,0.304,0.42,0.479,0.502,0.456,0.351,0.422,0.718,0.758,0.691,0.604,0.689,0.986,0.975,0.85,0.874,0.905
NCI-H1793,0.211,0.162,0.175,0.155,0.207,0.399,0.389,0.455,0.263,0.41,0.519,0.539,0.415,0.342,0.549,0.729,0.745,0.771,0.555,0.603
NCI-H1915,0.781,0.894,0.879,0.698,0.836,0.358,0.333,0.344,0.249,0.304,0.276,0.267,0.283,0.255,0.26,1.04,1.11,1.09,1.1,1.03
NCI-H1944,0.814,0.711,0.709,–,0.768,0.239,0.232,0.233,–,0.233,0.448,0.445,0.399,–,0.425,1.03,0.885,0.93,–,0.869
NCI-H1975,0.259,0.184,0.222,0.263,0.161,0.388,0.345,0.395,–,0.312,0.38,0.427,0.38,0.377,0.382,0.979,0.944,0.897,–,0.896
NCI-H1993,0.747,0.913,0.705,0.642,0.857,0.661,0.724,0.713,0.485,0.549,0.593,0.57,0.595,–,0.688,0.682,0.838,0.851,0.621,0.771
NCI-H2009,1.01,1.04,0.994,0.988,0.946,0.27,0.309,0.258,0.312,0.32,0.396,0.365,0.428,0.322,0.382,1.23,1.23,1.19,1.24,1.14
NCI-H2023,0.877,0.688,0.602,0.553,0.686,0.591,0.624,0.617,0.507,0.529,0.208,0.238,0.256,0.233,0.239,0.984,0.823,0.829,0.777,0.825
NCI-H2085,0.409,0.457,0.482,0.347,0.39,0.272,0.255,0.276,0.24,0.243,0.574,0.534,0.523,0.474,0.537,0.995,0.882,1.05,1.02,0.903
NCI-H2087,0.203,0.141,0.181,0.155,0.175,0.843,0.866,0.888,0.852,0.838,0.329,0.272,0.326,0.243,0.235,1.04,1.24,1.17,1.17,1.08
NCI-H2126,0.984,0.843,0.95,0.9,0.856,0.632,0.657,0.566,0.381,0.586,0.577,0.615,0.562,0.501,0.582,1.32,1.09,1.08,1.08,1.18
NCI-H2170,0.603,0.729,0.682,0.403,0.719,0.585,0.713,0.579,0.499,0.59,0.469,0.495,0.477,–,0.459,0.994,0.978,1.1,0.928,0.984
NCI-H2342,0.604,0.68,0.679,0.552,1.09,0.3,0.369,0.34,0.302,0.317,0.727,0.733,0.732,0.65,0.99,1.11,1.11,1.05,0.978,1.12
NCI-H2347,0.456,0.659,0.405,0.411,0.403,0.323,0.342,0.276,0.307,0.317,0.706,0.62,0.553,0.643,0.65,0.607,0.828,0.831,0.79,1.57
NCI-H2405,0.686,0.718,0.5,0.515,0.65,0.217,0.205,0.188,0.194,0.203,–,0.781,0.662,0.626,0.66,1.06,1.01,0.746,1.02,1
NCI-H3122,0.0953,0.0902,0.113,0.0851,0.0997,0.86,0.904,0.911,0.669,0.955,0.447,0.411,0.42,0.331,0.498,0.971,0.959,1.08,1.03,0.983
